For one data set, the target named is T1, AChE from E. electricus (Electrophorus electricus, UniProt O42275).
T1 construct: purchased Sigma Aldrich
In words: biochemical.

The target of data set [1] is T2, horse serum BuChE (eqBuChE) (Equus caballus, UniProt P81908).
T2 construct: horse serum BuChE (eqBuChE, Sigma-Aldrich); purchased Sigma-Aldrich; host or cells: horse serum
The data set can be described thus: biochemical. To be noted: Ellman's method, 25°C, mean ± SEM of three experiments. In general terms: In Ellman's method for cholinesterases, released thiocholine reacts with DTNB.
Protocol: (§1) This method is based on the reaction of acetylthiocholine with 5,5′´-dithio-bis-(2-nitrobenzoic) acid (DTNB) to yield the colored product.
(§2) AChE from E. electricus, and horse serum BuChE (eqBuChE, Sigma-Aldrich) 5,5-Dithiobis-(2-nitrobenzoic acid) (DTNB), and acetylthiocholine iodide (ATC) were purchased from Sigma Aldrich. […] In this procedure, five different concentrations of each compound were used at 25°C. […] For the in-vitro BuChE assay similar method has been used.

The target of data set [2] is T3, Aβ1–42 and human recombinant AChE (Homo sapiens, UniProt P22303).
T3 construct: Aβ1–42 (Sigma A9810); purchased Sigma C1682 (AChE); A9810 (Aβ1–42)
The data set can be described thus: Inhibition of AChE-induced Aβ1–42 aggregation (thioflavin T assay). It is filed as biochemical. Particulars: read-out: Inhibition of Aβ aggregation (%) AChE-induced.
Protocol: For this purpose, we used the thioflavin T (ThT) assay.
Aβ1–42 (Sigma A9810) 50 μM was dissolved in ammonium hydroxide (1% v/v) for pre-fibrillation and incubated for 72 h at 37°C. […] Next, 50 μl of thioflavin T (ThT, 200 μM) containing 50 mM glycine-NaOH buffer (pH 8.5) was added. […] The aggregation inhibition of the tested compounds was calculated on AChE or self-induced Aβ-aggregation according to the equation (1−IFi/IFc) × 100, where IFi and IFc are the fluorescence intensities in the presence of inhibitors and in the absence of inhibitors, respectively.

The next data set addresses T4, Aβ1–42 (Homo sapiens, UniProt P05067).
T4 construct: Aβ1–42 (Sigma A9810); purchased Sigma A9810
In words: Inhibition of self-induced Aβ1–42 aggregation (thioflavin T assay). Format: biochemical. Particulars: for inhibition at 10 µM: read-out: Inhibition of Aβ aggregation (%) Self-induced; for Effectiveness relative to donepezil in inhibition of self-induced Aβ aggregation: 10 μM.

Data set [3] can be described thus: Cell viability assay (MTT) in PC12 cells. To be noted: rat. It is filed as cell-based. On the procedure: Safety is an important factor for CNS agents. In order to evaluate the cytotoxic effect of selected compounds 5a, 5f, 5h, 5i, and 5l, the in-vitro cell viability assay was investigated on the PC12 cell line using the MTT (3-(4,5-dimethylthiazol-2-yl)-2,5-diphenyltetrazolium bromide) assay. The PC12 cells were incubated with varying concentrations (0.01–100 μM) of the test compounds for 24 h. […] The results are expressed as the percentage of viable cells.
In order to evaluate cell viability of 5a, 5f, 5h, 5i, and 5l, the 3-(4,5-dimethylthiazol-2-yl)-2,5-diphenyl tetrazolium bromide (MTT) assay was performed using PC12 cell line. Cells were seeded in 96-well plates at a density of 5,000 cells/well for 24 h, and then cells were treated with tested compounds and glutamate (5 mM) and incubated at 37°C for 24 h. After that, the medium was removed and 20 μl of the MTT reagent (5 mg/ml) was added and incubated at 37 °C for 4 h. Then, the medium was replaced with 150 μl DMSO to solve formazan crystals. The absorbance was recorded by microplate reader apparatus (Biotek, Winooski, VT, United States) at 570 nm. The assay was performed in three independent experiments and triplicate.

For the next data set, the target named is AChE (Electrophorus electricus, UniProt O42275). The data set can be described thus: Kinetics study of AChE inhibition (Lineweaver-Burk plots). It is filed as biochemical. Particulars: inhibitor at 0.32, 0.64, 1.27 μM, substrate ATCh. On the procedure: The inhibition model of acetylcholinesterase can be categorized into irreversible-type inhibition and reversible-type inhibition. […]. The type of inhibition can be concluded with a graphical analysis of the Lineweaver-Burk reciprocal plots ([Baharloo et al., 2015]).
[…]. The experiment was assayed in triplicate.

The mark [4] stands for this setting: Ellman's method, 25°C, mean ± SEM of three experiments, read-out: IC50 (μM) AChE.
[5] abbreviates: compound at 10 μM, ThT assay, mean ± SEM of three experiments.

Entries after “also recorded” stand apart in the source; their conditions may differ. Like-named read-outs stand apart in the source and are kept apart here.

T1 sequence (O42275 24-633): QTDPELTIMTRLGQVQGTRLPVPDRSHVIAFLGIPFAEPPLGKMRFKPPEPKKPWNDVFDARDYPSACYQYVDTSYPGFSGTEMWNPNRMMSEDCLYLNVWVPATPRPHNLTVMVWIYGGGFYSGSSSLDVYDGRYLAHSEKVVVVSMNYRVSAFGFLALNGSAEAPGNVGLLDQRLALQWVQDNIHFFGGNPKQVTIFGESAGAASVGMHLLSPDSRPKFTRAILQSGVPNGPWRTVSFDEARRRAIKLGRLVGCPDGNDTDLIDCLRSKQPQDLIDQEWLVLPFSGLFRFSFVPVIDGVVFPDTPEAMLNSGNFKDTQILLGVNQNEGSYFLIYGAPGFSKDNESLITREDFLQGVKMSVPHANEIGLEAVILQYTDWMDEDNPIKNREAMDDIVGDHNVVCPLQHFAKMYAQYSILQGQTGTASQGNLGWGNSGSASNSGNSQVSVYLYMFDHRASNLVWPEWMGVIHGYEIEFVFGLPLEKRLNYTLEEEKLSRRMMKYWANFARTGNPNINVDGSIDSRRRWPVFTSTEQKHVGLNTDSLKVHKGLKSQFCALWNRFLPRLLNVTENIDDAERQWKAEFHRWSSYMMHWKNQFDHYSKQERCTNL
T4 sequence (P05067 672-713 limits assumed): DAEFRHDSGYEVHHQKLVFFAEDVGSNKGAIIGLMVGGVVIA
T3 sequence (P22303 32-614): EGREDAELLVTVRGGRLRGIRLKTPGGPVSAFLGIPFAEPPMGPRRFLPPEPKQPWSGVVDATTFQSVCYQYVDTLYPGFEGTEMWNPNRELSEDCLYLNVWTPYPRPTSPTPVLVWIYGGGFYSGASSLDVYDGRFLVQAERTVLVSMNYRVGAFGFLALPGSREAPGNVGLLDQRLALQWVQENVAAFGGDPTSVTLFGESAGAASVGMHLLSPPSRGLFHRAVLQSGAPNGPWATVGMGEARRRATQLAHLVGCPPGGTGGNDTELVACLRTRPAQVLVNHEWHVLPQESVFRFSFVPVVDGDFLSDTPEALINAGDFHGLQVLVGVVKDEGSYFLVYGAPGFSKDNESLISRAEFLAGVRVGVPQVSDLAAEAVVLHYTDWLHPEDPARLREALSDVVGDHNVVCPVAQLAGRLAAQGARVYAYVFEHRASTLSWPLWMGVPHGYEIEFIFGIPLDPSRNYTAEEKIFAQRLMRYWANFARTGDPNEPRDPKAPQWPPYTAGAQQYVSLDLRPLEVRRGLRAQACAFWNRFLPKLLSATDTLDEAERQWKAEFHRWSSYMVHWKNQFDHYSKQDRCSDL
T2 sequence (P81908 whole entry): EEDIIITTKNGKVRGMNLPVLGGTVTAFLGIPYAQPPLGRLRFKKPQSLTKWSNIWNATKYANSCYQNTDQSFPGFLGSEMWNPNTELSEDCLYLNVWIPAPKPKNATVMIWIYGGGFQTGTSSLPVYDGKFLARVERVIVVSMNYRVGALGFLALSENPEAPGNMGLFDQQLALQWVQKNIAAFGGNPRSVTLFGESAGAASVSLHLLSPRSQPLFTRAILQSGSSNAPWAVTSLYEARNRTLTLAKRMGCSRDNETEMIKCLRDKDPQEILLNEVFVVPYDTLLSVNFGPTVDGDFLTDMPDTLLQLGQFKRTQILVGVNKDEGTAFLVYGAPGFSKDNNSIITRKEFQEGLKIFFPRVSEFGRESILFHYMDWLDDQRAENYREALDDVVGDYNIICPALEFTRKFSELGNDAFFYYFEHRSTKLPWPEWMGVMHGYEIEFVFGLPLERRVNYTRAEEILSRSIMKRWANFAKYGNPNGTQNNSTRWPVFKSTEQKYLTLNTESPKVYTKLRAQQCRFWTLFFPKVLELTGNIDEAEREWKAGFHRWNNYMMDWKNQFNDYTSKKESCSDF
Sequence of AChE (O42275 24-633): as the sequence (O42275 24-633) above
Protocol for AChE from E. electricus: as §1, §2

The term IC50 denotes the concentration at which inhibition is half-maximal. For `Nc1c(-c2cc[n+](Cc3ccc(Br)cc3)cc2)oc2ccccc12` [5n, 4-(3-Aminobenzofuran-2-yl)-1-(4-bromobenzyl) pyridin-1-ium chloride], the figures for the IC50 (at AChE from E. electricus (setting [4]); in data set [1]) were 15.8 ± 0.91 µM and 22.6 ± 3.33 µM, respectively.

As a reminder, the inhibition is how much of the control response was suppressed. By viability is commonly meant a read-out of living cells in per cent, often relative to untreated cells. Low values mean a greater loss of cells, high ones better survival. With `Nc1c(-c2cc[n+](Cc3ccccc3Cl)cc2)oc2ccccc12` [5i, 4-(3-Aminobenzofuran-2-yl)-1-(2-chlorobenzyl) pyridin-1-ium chloride], the IC50 against AChE from E. electricus was found to be 0.7 ± 0.01 µM; in data set [1] it was 0.99 ± 0.05 µM. Moreover, in data set [2], the inhibition at 100 µM turned out to be 26.5 ± 3.8%. Also, the inhibition at 10 µM at Aβ1–42 (setting [5]) stood at 24.8 ± 1.5%. This molecule yielded a viability at 24 h in data set [3] of 90.2 ± 4.1%.

Take `Nc1c(-c2cc[n+](Cc3ccc([N+](=O)[O-])cc3)cc2)oc2ccccc12` [5p, 4-(3-Aminobenzofuran-2-yl)-1-(4-nitrobenzyl) pyridin-1-ium chloride]: the IC50 turned out to be 20.6 ± 0.8 µM on AChE from E. electricus (setting [4]) and 28.3 ± 0.48 µM in data set [1].

In the case of `Nc1c(-c2cc[n+](Cc3ccccc3[N+](=O)[O-])cc2)oc2ccccc12` [5o, 4-(3-Aminobenzofuran-2-yl)-1-(2-nitrobenzyl) pyridin-1-ium chloride], the half-inhibitory concentration (IC50) at AChE from E. electricus (setting [4]) is 7.84 ± 0.05 µM; in data set [1] it was 28.63 ± 0.13 µM.

Consider `Nc1c(-c2cc[n+](Cc3ccccc3F)cc2)oc2ccccc12.[Cl-]` [5f, 4-(3-Aminobenzofuran-2-yl)-1-(2-fluorobenzyl) pyridin-1-ium chloride], for which the 50% inhibitory concentration (IC50) against AChE from E. electricus amounted to 0.64 ± 0.04 µM; in data set [1], 0.55 ± 0.07 µM. Also, in data set [2], the inhibition at 100 µM was determined as 30.1 ± 1.9%. Further, at Aβ1–42 (ThT assay), the “Effectiveness relative to donepezil in inhibition of self-induced Aβ aggregation” value is on record as “about 2 fold”. Further, the inhibition at 10 µM at Aβ1–42 (setting [5]) is 29.8 ± 1.8%. For the same molecule, the “Type of inhibition on AChE” value at AChE is on record as “mixed-type inhibition; also recorded: mixed-type inhibitory pattern”. In data set [3], this molecule gave a viability at 24 h of 86.4 ± 2.6%.

For the molecule `Nc1c(-c2cc[n+](Cc3cccc(Cl)c3)cc2)oc2ccccc12` [5j, 4-(3-Aminobenzofuran-2-yl)-1-(3-chlorobenzyl) pyridin-1-ium chloride], the IC50 at AChE from E. electricus (setting [4]) came to 2.99 ± 0.03 µM; in data set [1] it was 18.8 ± 1.11 µM.

In the case of `Nc1c(-c2cc[n+](Cc3ccccc3)cc2)oc2ccccc12` [5a, 4-(3-Aminobenzofuran-2-yl)-1-benzylpyridin-1-ium chloride], the IC50 was found to be 0.81 ± 0.02 µM against AChE from E. electricus and 0.82 ± 0.07 µM in data set [1]. The inhibition at 100 µM in data set [2] was 22.4 ± 1.6%. Besides, the inhibition at 10 µM on Aβ1–42 (setting [5]) was 17.6 ± 3.8%. In addition, in data set [3], the viability at 24 h turned out to be 85.9 ± 1.5%.

For the molecule `COc1cc2c(cc1OC)C(=O)C(CC1CCN(Cc3ccccc3)CC1)C2` (stereo not drawn) [Donepezil, reference compound], at Aβ1–42, the inhibition at 10 µM was 14.9 ± 2.5%.

Take `Cc1ccccc1C[n+]1ccc(-c2oc3ccccc3c2N)cc1` [5b, 4-(3-Aminobenzofuran-2-yl)-1-(2-methylbenzyl) pyridin-1-ium chloride]: the IC50 at AChE from E. electricus (setting [4]) stood at 3.29 ± 0.01 µM; in data set [1], 17.4 ± 2.45 µM.

`Cc1cccc(C[n+]2ccc(-c3oc4ccccc4c3N)cc2)c1` [5c, 4-(3-Aminobenzofuran-2-yl)-1-(3-methylbenzyl) pyridin-1-ium chloride]: the IC50 at AChE from E. electricus (setting [4]) is 3.32 ± 0.04 µM; in data set [1], 12.9 ± 3.56 µM.

Consider `COc1cccc(C[n+]2ccc(-c3oc4ccccc4c3N)cc2)c1` [5e, 4-(3-Aminobenzofuran-2-yl)-1-(3-methoxybenzyl) pyridin-1-ium chloride], for which the IC50 at AChE from E. electricus (setting [4]) is 81.1 ± 1.61 µM; in data set [1], more than 100 µM.

`Nc1c(-c2cc[n+](Cc3cccc(Br)c3)cc2)oc2ccccc12` [5m, 4-(3-Aminobenzofuran-2-yl)-1-(3-bromobenzyl) pyridin-1-ium chloride]: the IC50 on AChE from E. electricus (setting [4]) was 4.47 ± 0.02 µM; in data set [1] it was 13.9 ± 1.2 µM.

With `Nc1c(-c2cc[n+](Cc3ccc(Cl)cc3)cc2)oc2ccccc12` [5k, 4-(3-Aminobenzofuran-2-yl)-1-(4-chlorobenzyl) pyridin-1-ium chloride], the IC50 on AChE from E. electricus (setting [4]) worked out at 16.6 ± 0.52 µM; in data set [1] it was 31.2 ± 2.56 µM.

Consider `Nc1c(-c2cc[n+](Cc3cccc(F)c3)cc2)oc2ccccc12` [5g, 4-(3-Aminobenzofuran-2-yl)-1-(3-fluorobenzyl) pyridin-1-ium chloride], for which the results for the IC50 (at AChE from E. electricus (setting [4]); in data set [1]) were 1.68 ± 0.02 µM and 2.89 ± 0.42 µM, respectively.

For the molecule `Nc1c(-c2cc[n+](Cc3ccccc3Br)cc2)oc2ccccc12` [5l, 4-(3-Aminobenzofuran-2-yl)-1-(2-bromobenzyl) pyridin-1-ium chloride], the IC50 at AChE from E. electricus worked out at 1.34 ± 0.01 µM; in data set [1] it was 10.5 ± 0.19 µM. Further, the inhibition at 100 µM in data set [2] stood at 22.4 ± 2.3%. Moreover, on Aβ1–42 (setting [5]), the inhibition at 10 µM turned out to be 25.7 ± 2.7%. Besides, the viability at 24 h in data set [3] was determined as 87.1 ± 2.9%.

Consider `Nc1c(-c2cc[n+](Cc3ccc(F)cc3)cc2)oc2ccccc12.[Cl-]` [5h, 4-(3-Aminobenzofuran-2-yl)-1-(4-fluorobenzyl) pyridin-1-ium chloride], for which the IC50 was 0.88 ± 0.04 µM against AChE from E. electricus and 5.05 ± 0.73 µM in data set [1]. The inhibition at 100 µM in data set [2] worked out at 35.6 ± 1.5%. On Aβ1–42 (ThT assay), the “Effectiveness relative to donepezil in inhibition of self-induced Aβ aggregation” value is “about 2 fold”. Moreover, on Aβ1–42 (setting [5]), the inhibition at 10 µM turned out to be 38.8 ± 2.8%. Further, the viability at 24 h in data set [3] stood at 88.2 ± 2.4%.

Consider `Cc1ccc(C[n+]2ccc(-c3oc4ccccc4c3N)cc2)cc1` [5d, 4-(3-Aminobenzofuran-2-yl)-1-(4-methylbenzyl) pyridin-1-ium chloride], for which the IC50 on AChE from E. electricus (setting [4]) came out at 29.3 ± 0.82 µM; in data set [1], 25.3 ± 1.91 µM.

Values taken from paper PMC9395670 (Frontiers in Chemistry, 2022).
